We go through three compounds from US9670195B2, “Glycosidase inhibitors and uses thereof” (Alectos Therapeutics Inc., priority 2012, dated 2017).

Molecules are shown by their SMILES.

The target of the test is human O-GlcNAcase (Homo sapiens (Human), UniProt O60502). Nature of the test: Assay for determination of KI values for inhibition of O-GlcNAcase activity (fluorescence-based). Type of test: biochemical. The note with it: purified human O-GlcNAcase, 4-Methylumbelliferyl N-acetyl-β-D-glucosaminide substrate, pH 7.0, Cheng-Prusoff; read-out: Fluorescence-based hOGA Ki. As to the method: Assay for Determination of KI Values for Inhibition of O-GlcNAcase Activity
Chain of human O-GlcNAcase (O60502 whole entry): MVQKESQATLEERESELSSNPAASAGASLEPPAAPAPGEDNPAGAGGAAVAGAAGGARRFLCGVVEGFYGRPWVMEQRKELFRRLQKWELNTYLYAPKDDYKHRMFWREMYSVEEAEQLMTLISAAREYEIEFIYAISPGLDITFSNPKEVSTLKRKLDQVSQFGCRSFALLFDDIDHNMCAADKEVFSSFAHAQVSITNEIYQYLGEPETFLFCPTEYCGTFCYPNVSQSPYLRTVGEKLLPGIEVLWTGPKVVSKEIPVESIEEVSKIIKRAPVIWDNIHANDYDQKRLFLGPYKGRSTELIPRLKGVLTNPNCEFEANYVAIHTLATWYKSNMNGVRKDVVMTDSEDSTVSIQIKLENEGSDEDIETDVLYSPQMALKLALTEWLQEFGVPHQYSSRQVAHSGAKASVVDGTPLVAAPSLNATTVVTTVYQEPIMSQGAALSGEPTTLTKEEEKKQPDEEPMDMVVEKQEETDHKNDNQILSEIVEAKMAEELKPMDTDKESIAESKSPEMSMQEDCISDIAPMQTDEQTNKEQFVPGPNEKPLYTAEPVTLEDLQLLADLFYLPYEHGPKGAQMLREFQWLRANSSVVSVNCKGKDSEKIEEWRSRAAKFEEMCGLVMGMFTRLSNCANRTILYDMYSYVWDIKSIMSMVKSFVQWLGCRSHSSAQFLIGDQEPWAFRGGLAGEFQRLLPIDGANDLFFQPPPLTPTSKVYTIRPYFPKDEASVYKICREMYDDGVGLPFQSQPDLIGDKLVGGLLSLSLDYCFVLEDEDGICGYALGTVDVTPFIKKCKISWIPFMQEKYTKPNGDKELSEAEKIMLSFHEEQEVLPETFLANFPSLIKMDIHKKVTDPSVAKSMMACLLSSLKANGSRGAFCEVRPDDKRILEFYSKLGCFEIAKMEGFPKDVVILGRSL
Experimental Procedure for Kinetic Analyses:
Enzymatic reactions are carried out in a reaction containing 50 mM NaH2PO4, 100 mM NaCl and 0.1% BSA (pH 7.0) using 2 mM 4-Methylumbelliferyl N-acetyl-β-D-glucosaminide dihydrate (Sigma M2133) dissolved in ddH2O, as a substrate. The amount of purified human O-GlcNAcase enzyme used in the reaction is 0.7 nM. Test compound of varying concentrations is added to the enzyme prior to initiation of the reaction. The reaction is performed at room temperature in a 96-well plate and is initiated with the addition of substrate. The production of fluorescent product is measured every 60 sec for 45 min with a Tecan Infinite M200 plate-reader with excitation at 355 nm and emission detected at […], with 4-Methylumbelliferone (Sigma M1381) used to produce a standard curve. The slope of product production is determined for each concentration of compound tested and plotted, using standard curve fitting algorithms for sigmoidal dose response curves. The values for a four parameter logistic curve fit of the data are determined.
KI values are determined using the Cheng-Prusoff equation; the Km of O-GlcNAcase for substrate is 0.2 mM.
In the case of `CCCCN1C[C@H](NC(C)=O)[C@@H](O)[C@@H]1CO`, the Ki turned out to be 15 µM.

In the case of `CC(=O)N[C@H]1CN(CCCc2ccccc2)[C@@H](CO)[C@@H]1O` [Example 1, N-((3S,4R,5S)-4-hydroxy-5-(hydroxymethyl)-1-(3-phenylpropyl)pyrrolidin-3-yl)acetamide], the inhibitory constant (Ki) came out at 16.5 µM.

As to `CC(=O)N[C@H]1CN[C@@H](CO)[C@@H]1O`, the Ki was found to be 5.9 µM.

One may read the Ki as the dissociation constant of the complex between target and ligand, obtained from inhibition or displacement.
